Results from patent US20130210881A1, “ANTIMICROBIAL COMPOSITION” (Agency for Science ,Technology and Research, priority 2010, published 2013).

Columns and labels:
Format in all cases: cell-based
[1] = test system: Bacillus subtilis (ATCC 23857, gram-positive); experiment: Antimicrobial analysis, MIC, B. subtilis; conditions: ATCC23857, 37° C., 24 hours, concentration necessary to inhibit complete cell growth
Experimental: (§1) All bacteria and yeast originated from a −80° C. frozen stock. Bacteria were grown overnight at 37° C. in Tryptic Soy broth (TSB) and yeast was grown overnight at 22° C. in Yeast Mold (YM) broth. Sub-samples of these cultures were grown for three hours further and diluted to an OD600 of 0.1. The bacteria solutions (about 2˜5×10^8 cells/mL) were then added to the 96-well plate and were incubated at 37° C. for 24 hours. All experiments were run in triplicate and the reported minimum inhibitory concentration (MIC) is the concentration necessary to inhibit complete cell growth.

[2] = test system: Candida albicans (ATCC 10231, yeast); experiment: Antimicrobial analysis, MIC, C. albicans; conditions: ATCC10231, concentration necessary to inhibit complete cell growth
Experimental: as §1

[3] = test system: Escherichia coli (ATCC 25922, gram-negative); experiment: Antimicrobial analysis, MIC, E. coli; conditions: ATCC25922, 37° C., 24 hours, concentration necessary to inhibit complete cell growth
Experimental: as §1

Measured: MIC

c1ccc(C[n+]2ccn(Cc3ccc(Cn4cc[n+](Cc5ccc(Cn6cc[n+](Cc7ccccc7)c6)cc5)c4)cc3)c2)cc1 [Sample 3c]
> 250 µg/mL: all assays above

c1ccc(C[n+]2ccn(Cc3ccccc3Cn3cc[n+](Cc4ccccc4)c3)c2)cc1 [Sample 3b]
> 250 µg/mL: all assays above

C(=C/CCn1cc[n+](Cc2ccccc2)c1)/CCn1cc[n+](CC/C=C\CCn2cc[n+](Cc3ccccc3)c2)c1 [Sample 3d]
> 250 µg/mL: all assays above

C(=C/CCn1cc[n+](Cc2ccc(Cn3cc[n+](CC/C=C\CCn4cc[n+](Cc5ccccc5)c4)c3)cc2)c1)/CCn1cc[n+](Cc2ccccc2)c1 [Sample 3f]
> 250 µg/mL: all assays above

c1ccc(C[n+]2ccn(Cc3ccc(Cn4cc[n+](Cc5ccccc5)c4)cc3)c2)cc1 [Sample 3a]
> 250 µg/mL: all assays above
